Source: patent publication US9334279B2, “Hepatitis C virus inhibitors” (BRISTOL-MYERS SQUIBB COMPANY, priority 2012, dated 2016)

Assays:
[1] = tested on: HCV GT1a(H77) replicon; experiment: HCV replicon luciferase reporter assay, genotype 1a; assay type: cell-based, HCV genotype 1a; conditions: Hepatitis C virus, 72 h, HUH-7 cells, Renilla luciferase, 3 days incubation, read-out: LE_1a (EC50, range)
Summary of the method: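 Huh-7 cells stably carried a GT1a(H77) Renilla luciferase replicon with NS3 P1496L and NS5A S2204I adaptive mutations. Luminescence was read after 2 h with 7.5 μM EnduRen, and EC50 came from a four-parameter logistic fit; CC50 came from multiplexed Cell Titer-Blue (8 h).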

[2] = tested on: HCV GT1b(Con1) replicon; experiment: HCV replicon luciferase reporter assay, genotype 1b; assay type: cell-based, HCV genotype 1b; conditions: Hepatitis C virus, 72 h, HUH-7 cells, Renilla luciferase, 3 days incubation, read-out: LE_1b (EC50, range)
Summary of the method: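 HUH-7 cells stably carrying a Con1 GT1b replicon with Renilla luciferase and Ser1179Ile adaptive mutation; 3.0×10^3 cells/well, DMEM 4% FCS, 0.5% DMSO, twenty-point 3-fold titration, 3 days 37 °C. Luminescence 2 h after 7.5 μM EnduRen; EC50 by four-parameter logistic fit. CC50 from multiplexed Cell Titer-Blue fluorescence (8 h).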

SMILES | EC50 [1] [nM] | EC50 [2] [nM]
Cc1csc(-c2cc(O[C@@H]3C[C@H]4C(=O)N[C@]5(C(=O)NS(=O)(=O)C6(C)CC6)C[C@H]5/C=C\CC[C@@H](C)C[C@@H](C)[C@H](NC(=O)OC(C)(C)C(F)(F)F)C(=O)N4C3)ccn2)n1 [Compound 1045, 1,1,1-trifluoro-2-methylpropan-2-yl ((2R,6S,7R,9R,13aS,14aR,16aS,Z)-7,9-dimethyl-14a-(((1-methylcyclopropyl)sulfonyl)carbamoyl)-2-((2-(4-methylthiazol-2-yl)pyridin-4-yl)oxy)-5,16-dioxo-1,2,3,5,6,7,8,9,10,11,13a,14,14a,15,16,16a-hexadecahydrocyclopropa[e]pyrrolo[1,2-a][1,4]diazacyclopentadecin-6-yl)carbamate] | 1.01 to 5 | 0.1 to 0.5
CC[C@@H]1C[C@H](C)CC/C=C\[C@@H]2C[C@@]2(C(=O)NS(=O)(=O)C2CC2)NC(=O)[C@@H]2C[C@@H](Oc3cc(OC)nc(-c4nccs4)c3)CN2C(=O)[C@H]1NC(=O)OC(C)(C)C(F)(F)F [Compound 1056, 1,1,1-trifluoro-2-methylpropan-2-yl ((2R,6S,7R,9R,13aS,14aR,16aS,Z)-14a-((cyclopropylsulfonyl)carbamoyl)-7-ethyl-2-((2-methoxy-6-(thiazol-2-yl)pyridin-4-yl)oxy)-9-methyl-5,16-dioxo-1,2,3,5,6,7,8,9,10,11,13a,14,14a,15,16,16a-hexadecahydrocyclopropa[e]pyrrolo[1,2-a][1,4]diazacyclopentadecin-6-yl)carbamate] | 1.01 to 5 | 1.01 to 5
CC(C)Oc1ccc(-c2cc(O[C@@H]3C[C@H]4C(=O)N[C@]5(C(=O)NS(=O)(=O)C6(C)CC6)C[C@H]5/C=C\CC[C@@H](C)C[C@@H](C)[C@H](NC(=O)OC(C)(C)C(F)(F)F)C(=O)N4C3)cc(-c3ncccn3)n2)cc1 [Compound 1019, 1,1,1-trifluoro-2-methylpropan-2-yl ((2R,6S,7R,9R,13aS,14aR,16aS,Z)-2-((2-(4-isopropoxyphenyl)-6-(pyrimidin-2-yl)pyridin-4-yl)oxy)-7,9-dimethyl-14a-(((1-methylcyclopropyl)sulfonyl)carbamoyl)-5,16-dioxo-1,2,3,5,6,7,8,9,10,11,13a,14,14a,15,16,16a-hexadecahydrocyclopropa[e]pyrrolo[1,2-a][1,4]diazacyclopentadecin-6-yl)carbamate] | 1.01 to 5 | 1.01 to 5
C[C@@H]1CC/C=C\[C@@H]2C[C@@]2(C(=O)NS(=O)(=O)C2(C)CC2)NC(=O)[C@@H]2C[C@@H](Oc3cc(-c4ccccc4)nc(-c4nccs4)c3)CN2C(=O)[C@@H](NC(=O)OC(C)(C)C(F)(F)F)[C@H](C)C1 [Compound 1060, 1,1,1-trifluoro-2-methylpropan-2-yl ((2R,6S,7R,9R,13aS,14aR,16aS,Z)-7,9-dimethyl-14a-(((1-methylcyclopropyl)sulfonyl)carbamoyl)-5,16-dioxo-2-((2-phenyl-6-(thiazol-2-yl)pyridin-4-yl)oxy)-1,2,3,5,6,7,8,9,10,11,13a,14,14a,15,16,16a-hexadecahydrocyclopropa[e]pyrrolo[1,2-a][1,4]diazacyclopentadecin-6-yl)carbamate] | 0.51 to 1 | 0.1 to 0.5
CC(C)Oc1ccc(-c2cc(O[C@@H]3C[C@H]4C(=O)N[C@]5(C(=O)NS(=O)(=O)C6(C)CC6)C[C@H]5/C=C\CC[C@@H](C)C[C@@H](C)[C@H](NC(=O)OC(C)(C)C(F)(F)F)C(=O)N4C3)cc(-c3cnccn3)n2)cc1 [Compound 1001, 1,1,1-trifluoro-2-methylpropan-2-yl ((2R,6S,7R,9R,13aS,14aR,16aS,Z)-2-((2-(4-isopropoxyphenyl)-6-(pyrazin-2-yl)pyridin-4-yl)oxy)-7,9-dimethyl-14a-(((1-methylcyclopropyl)sulfonyl)carbamoyl)-5,16-dioxo-1,2,3,5,6,7,8,9,10,11,13a,14,14a,15,16,16a-hexadecahydrocyclopropa[e]pyrrolo[1,2-a][1,4]diazacyclopentadecin-6-yl)carbamate] | 1.01 to 5 | 0.51 to 1
